Experiments:
[1] = system: cell surface protein fucosylation in CS-9 CHO cells; experiment: Cell Surface Protein Fucosylation Assay (FACS with FITC-LCA); type: cell-based, Chinese hamster; settings: Cricetulus griseus, 72 h, 3 days
Procedure: Cell Surface Protein Fucosylation Assay
(§1) The effect of the example compounds on cell surface protein fucosylation was measured in CS-9 CHO cells. A range of amounts of example compound was added to produce various concentrations (100 μM-0.005 uM). These were added to cells grown in batch production CHO cell media in Costar 96-well clear round bottom polypropylene plates and incubated at 37° C. in the presence of 5% CO2. Commercially available standard batch production serum free CHO media such as CD OptiCHO (Invitrogen), Power CHO (Lonza), or ExCell 325 PF CHO (commercially available from Sigma Aldrich) may be used in accordance with the assay. After 3 days, cells were analyzed by fluorescence-activated cell sorting (FACS) using FITC-Lens culinaris agglutinin (FITC-LCA, Vector Laboratories Cat#FL-1041) according to the following procedure. After 3 days, 50 uL of FITC-LCA (3 ug/mL) was added to columns 1-11 and plates were incubated for 30 minutes. Plates were then centrifuged briefly (2,000 rpm), and the medium was aspirated away. Cells were washed three times with PBS with 1% BSA, resuspended in the same buffer, and analyzed on the BD LSRii instrument. Cells were simultaneously assayed for viability using propidium iodide.
The following table includes IC50 values obtained using the procedures set forth above for the Example compounds described herein.

[2] = Cell viability by propidium iodide, run with the fucosylation assay; type: cell-based, Chinese hamster; settings: Chinese hamster, 100 μM, CS-9 CHO cells, read-out: Cell Viability max activity at 100 μM
Procedure: as §1

CS-9 CHO cells [3] = experiment: as above; type: cell-based, Chinese hamster; settings: Cricetulus griseus, 72 h, 3 days
Procedure: as §1

[4] = system: CHO cells expressing anti-TRAIL IgG1 antibody; experiment: Production cultures to generate antibodies for glycan analysis (HILIC); type: cell-based, Chinese hamster
Procedure: Production Cultures to Generate Antibodies for Glycan Analysis
CHO cells expressing anti-TRAIL IgG1 antibody were seeded into serum-free growth medium in deep 24-well plates via 1:5 dilution. Any medium suitable for growth of CHO cells (i.e. PowerCHO by Lonza or OptiCHO by Invitrogen) can be used. The fucosylation inhibitor Example 1 compound was added to the cultures at inoculation at 5, 10, 20, 40, 80, 160 and 320 uM via 1:1000 dilution of stock solutions in DMSO. The cultures were placed into a shaking incubator (50 mm orbital diameter, 36° C., 5% CO2, 220 rpm). The growth and viability of the cultures were monitored throughout the length of the production assay. The cells were fed with feed medium and an amino acid supplement on days 3, 6 and 8. Cultures were harvested on day 10 via centrifugation and spent medium supernatants were submitted for titer analysis and protein A purification. Glycan analysis of purified antibodies was conducted via the HILIC assay.
To test whether daily doses of the Example 1 fucosylation inhibitor would result in higher inhibition profile, CHO cells expressing anti TRAIL IgG1 antibody were seeded into serum-free growth medium in deep 24-well plates via 1:5 dilution. The fucosylation inhibitor compound Example 1 (FIG. 2) and compound Example 3 (FIG. 3) were added to the cultures on a daily basis at 5, 10, 20, 40, 60, 80, and 100 uM levels via 1:1000 dilution of stock solutions in DMSO. The cultures were placed into a shaking incubator (50 mm orbital diameter, 36° C., 5% CO2, 220 rpm). The growth and viability of cultures were monitored throughout the length of the production assay. Starting on day 3, cells were centrifuged at 1000 rpm for 5 minutes, a fraction of the spent medium was removed and cells were replenished with the equivalent volume of production medium. Cultures were harvested on day 10 via a 10 minute centrifugation at 1000 rpm. Spent medium fractions collected during the course of the experiment were submitted for titer analysis. Spent medium fractions corresponding to select time-points were also purified on protein A. Glycan analysis of the purified antibodies is shown in FIGS. 2 and 3.
The PNGase F (New England Biolabs) enzymatically-released N-linked glycans from protein-purified anti-TRAIL IgG1 antibody were labeled with 2-aminobenzoic acid (2-AA) and separated by HILIC (hydrophilic interaction liquid chromatography) in-line with a fluorescence detector. The separation was performed using a Waters Acquity UPLC (Waters, Milford, Mass.). In-line MS, using an ion trap mass spectrometer (LTQ; Thermo Scientific, Waltham, Mass.) in positive mode, was incorporated to accommodate mass determination of species. Glycans were injected and bound to the column in high organic conditions and were then eluted with an increasing gradient of an aqueous ammonium formate buffer. Fast separation times were achieved using a […] small particle column format (Acquity UPLC BEH Glycan Column, 2.1×100 mm; Waters, Milford, Mass.). Total runtime including column re-equilibration for the MS compatible separation was 30 minutes. Glycan from cells treated with 320 uM Example 1 compound was 64% fucosylated vs. 77% for DMSO control, and contained 13% high mannose vs. 12% for DMSO control.

[5] = Stability of inhibitor in the culture medium; type: physicochemical; settings: cell culture medium
[6] = system: cell surface protein high mannose in CS-9 CHO cells; experiment: Assay for Cell Surface Protein High Mannose (FACS with FITC-labeled Concanavilin A); type: cell-based, Chinese hamster; settings: Cricetulus griseus, 72 h, 3 days
Procedure: Assay for Cell Surface Protein High Mannose
as §1, with “high mannose” for “fucosylation”, “FITC-labeled Concanavilin A” for “FITC-Lens culinaris agglutinin (FITC-LCA, Vector Laboratories Cat#FL-1041)”

[7] = Cell viability by propidium iodide, run with the high mannose assay; type: cell-based, Chinese hamster; settings: Chinese hamster, 100 μM, CS-9 CHO cells, read-out: Cell Viability max activity at 100 μM
Procedure: as §1, with “high mannose” for “fucosylation”, “FITC-labeled Concanavilin A” for “FITC-Lens culinaris agglutinin (FITC-LCA, Vector Laboratories Cat#FL-1041)”

CS-9 CHO cells [8] = experiment: as above; type: cell-based, Chinese hamster; settings: Cricetulus griseus, 72 h, 3 days
Procedure: as §1, with “high mannose” for “fucosylation”, “FITC-labeled Concanavilin A” for “FITC-Lens culinaris agglutinin (FITC-LCA, Vector Laboratories Cat#FL-1041)”

| Stability of inhibitor in the medium [5] | Compound | IC50 [1] | viability at 3 days, 100 µM [2] | IC50 (CS-9 CHO cells [3]) | Incorporation of inhibitor molecule into the glycan ([4]; 320 uM, HILIC with in-line MS) | Glycan high mannose content ([4]; 320 uM, anti-TRAIL IgG1 glycan, HILIC, DMSO control 12%) | Glycan fucosylated ([4]; 320 uM, anti-TRAIL IgG1 glycan, HILIC, DMSO control 77%) | inhibition at 320 µM ([4]; Cricetulus griseus, CHO, 240 h, 320 uM added at inoculation, anti-TRAIL IgG1, harvest day 10, read-out: Maximum inhibition of fucosylation (afucosylation)) | Incorporation of inhibitor into antibody glycan ([4]; added to cell culture media on a daily basis, 5-100 uM) | IC50 [6] | viability at 3 days, 100 µM [7] | IC50 (CS-9 CHO cells [8]) |
| --- | --- | --- | --- | --- | --- | --- | --- | --- | --- | --- | --- | --- |
| limited stability | CC(=O)O[C@@H]1[C@H](OC(C)=O)[C@H](C)O[C@H](CP(=O)(OCOC(=O)C(C)(C)C)OCOC(=O)C(C)(C)C)[C@H]1OC(C)=O [Example 1, (2S,3S,4R,5R,6S)-2-((bis((pivaloyloxy)methoxy)phosphoryl)methyl)-6-methyltetrahydro-2H-pyran-3,4,5-triyl triacetate] | 21 µM | 94% | > 100 µM | No trace of the inhibitor molecule was detectable in the glycan | 13% | 64% | ~10% |  |  |  |  |
|  | CC(=O)OCOP(=O)(C[C@H]1O[C@@H](C)[C@@H](OC(C)=O)[C@@H](OC(C)=O)[C@@H]1OC(C)=O)OCOC(C)=O [Example 2, (2S,3S,4R,5R,6S)-2-((bis(acetoxymethoxy)phosphoryl)methyl)-6-methyltetrahydro-2H-pyran-3,4,5-triyl triacetate] | 44 µM | 103% | > 100 µM |  |  |  |  |  |  |  |  |
|  | CC(=O)O[C@H]1[C@H](OC(C)=O)[C@H](CP(=O)(OCOC(=O)C(C)(C)C)OCOC(=O)C(C)(C)C)O[C@@H](C(F)(F)F)[C@H]1OC(C)=O [Example 3, (2R,3S,4R,5S,6R)-2-((bis((pivaloyloxy)-methoxy)phosphoryl)methyl)-6-(trifluoromethyl)tetrahydro-2H-pyran-3,4,5-triyl triacetate] | 7 µM | 90% | > 100 µM |  |  |  |  | some incorporation of part of the inhibitor |  |  |  |
|  | CC(=O)OC[C@H]1O[C@H](CP(=O)(OCOC(=O)C(C)(C)C)OCOC(=O)C(C)(C)C)[C@@H](OC(C)=O)[C@@H](OC(C)=O)[C@@H]1OC(C)=O [Example 4, (2R,3R,4S,5S,6S)-2-(acetoxymethyl)-6-((bis((pivaloyloxy)methoxy)phosphoryl)methyl)tetrahydro-2H-pyran-3,4,5-triyl triacetate] |  |  |  |  |  |  |  |  | 33.1 µM | 92% | > 100 µM |
|  | CC(=O)N[C@@H]1[C@@H](OC(C)=O)[C@H](OC(C)=O)[C@@H](COC(C)=O)O[C@@H]1CP(=O)(OCOC(=O)C(C)(C)C)OCOC(=O)C(C)(C)C [Example 5, (((((2S,3R,4R,5S,6R)-3-acetamido-4,5-diacetoxy-6-(acetoxymethyl)tetrahydro-2H-pyran-2-yl)methyl)phosphoryl)bis(oxy))bis(methylene)bis(2,2-dimethylpropanoate)] |  |  |  |  |  |  |  |  | 3.4 µM | 88% | > 100 µM |

— patent US9328134B2, “Carbohydrate phosphonate derivatives as modulators of glycosylation” (AMGEN INC., priority 2013, dated 2016)
